≈ marks a conversion by molar mass, not a printed value. Where a name gives a salt, the structure may show the parent alone.
Assays:
MRSA BAA-44 = experiment: MIC of antibiotics in absence and presence of 11b (broth microdilution); type: cell-based, S. aureus; details: for Fold of potentiation: MIC alone versus with 10 μM 11b; for MIC: Staphylococcus aureus, antibiotic alone; for MIC (+11b): in the presence of 10 μM 11b
From the text: The MICs of a variety of antibiotics in the presence and absence of 11b, respectively. In addition to methicillin, BAA-44 is also resistant to a wide range of antibiotics, such as tetracycline, erythromycin, and daptomycin. As shown in Table 2-3, compound 11b potentiates the activity of all β-lactams tested, such as oxacillin, amox/clav, cefazolin, and meropenem. Without being bound by any theory, it is believed compound 11b and other compounds of the invention are selective potentiators of β-lactams.
(§1) The minimal inhibitory concentrations (MICS) of antimicrobial compounds and 11b were determined by the broth microdilution method detailed in the Clinical and Laboratory Standards Institute (CLSI) handbook. All antimicrobial compounds were purchased from Sigma-Aldrich. The growth media used for all MIC experiments was Mueller Hinton Broth (MHB) purchased from HIMEDIA through VWR (cat: 95039-356). The inoculum was prepared by diluting a bacterial day culture (OD600 0.15-0.4) to OD600 0.002. This dilution was further diluted two fold when added to 96 well microplates (USA Scientific CytoOne 96-well TC plate, cat: CC7682-7596) for a final inoculum concentration of OD600 0.001. All plates were incubated at 37° C. with shaking for 18 hours before results were interpreted.
The MRSA strain ATCC BAA-44 was used to determine the MIC values of various antimicrobial compounds in the presence of 10 μM 11b. The experiment was conducted similarly to the CLSI MIC determination described previously; however, MHB was supplemented with 20 μM 11b prior to set up and inoculation. The final concentration of 11b after inoculation with BAA-44 was 10 μM.

MRSA strain ATCC BAA-44 = experiment: Checkerboard MIC study of 11b and methicillin (FICI); type: cell-based, S. aureus; details: 11b with methicillin, ≤0.5 indicates synergy
Protocol: Tetracyclic indolenine compounds were then evaluated in a series of bacterial whole-cell assays. Compound 11b potentiated the activity of methicillin in a multi-drug resistant MRSA strain, ATCC BAA-44. To assess the degree of synergy between 11b and methicillin, a checkerboard minimum inhibitory concentration (MIC) study was performed.

[1] = tested on: BAA-44, NRS-100, NRS-384, NR-46414 and NR-46421; experiment: MRC of 11b for amox/clav and cefazolin in a variety of MRSA and VRSA strains; type: cell-based, S. aureus; details: all strains tested
Protocol: (§2) The minimum re-sensitizing concentrations (MRCS) of 11b to re-sensitize a variety of MRSA strains to β-lactam antibiotics, amox/clav and cefazolin was also evaluated.
(§3) Antibiotic MIC values where S. aureus is considered susceptible were determined from the CLSI handbook. MHB was supplemented with the antimicrobial at a concentration two fold greater than the CLSI susceptible MIC value. Two-fold serial dilutions of 11b were prepared in antibiotic supplemented media in 96-well microplates. These were inoculated with MRSA diluted to OD600 0.002 and incubated at 37° C. with shaking for 18 hours before results were interpreted. The concentration of 11b in antibiotic supplemented media at which there was no observable growth was considered the minimum resensitizing concentration (MRC). For amoxicillin/clavulanic acid, the initial concentration was 8/4 μg/mL; for cefazolin, 16 μg/mL. A 50 μL portion of the antibiotic containing media was added to each well of 96-well plates, and 100 μL was added to the top row. A 1.28 μL portion of 5 mg/mL 11b was added to the top row of each plate to afford a concentration of 64 μg/mL in the top row of each plate, and 2-fold serial dilutions were performed down the columns. […] The MRC value was determined as the concentration of 11b in the presence of antibiotic at which there was no observable overnight growth.

[2] = tested on: BAA-44, NRS-100, NRS-384, NR-46414 and NR-46421; experiment: MIC of 11b on its own in a variety of MRSA and VRSA strains; type: cell-based, S. aureus; details: all strains tested
Protocol: as §2, §1

[3] = tested on: multi-drug resistant MRSA strain, ATCC BAA-44; experiment: Minimum re-sensitizing concentration (MRC) for cefazolin; type: cell-based, S. aureus; details: MRSA ATCC BAA-44; re-sensitizing to cefazolin
Protocol: (§4) ATIs 11-14 represent a wide range of clogD values and their minimum re-sensitizing concentrations (MRCS) for cefazolin (i.e., a first-generation cephalosporin) and amoxicillin/clavulanic acid (i.e., Augmentin, amox/clav) was evaluated as well as their minimum inhibitory concentrations (MICs) in a multi-drug resistant MRSA strain, ATCC BAA-44. Any compounds with promising MRC and MIC were then evaluated for potential mammalian toxicity by determining their half growth inhibitory concentrations (GI50) in human cervical adenocarcinoma (HeLa) cells.
(§5) Antibiotic MIC values where S. aureus is considered susceptible were determined from the CLSI handbook. MHB was supplemented with the antimicrobial at a concentration two fold greater than the CLSI susceptible MIC value. Two-fold serial dilutions of 11b were prepared in antibiotic supplemented media in 96-well microplates. These were inoculated with MRSA diluted to OD600 0.002 and incubated at 37° C. with shaking for 18 hours before results were interpreted. The concentration of 11b in antibiotic supplemented media at which there was no observable growth was considered the minimum resensitizing concentration (MRC). For amoxicillin/clavulanic acid, the initial concentration was 8/4 μg/mL; for cefazolin, 16 μg/mL. A 50 μL portion of the antibiotic containing media was added to each well of 96-well plates, and 100 μL was added to the top row. A 1.28 μL portion of 5 mg/mL 11b was added to the top row of each plate to afford a concentration of 64 μg/mL in the top row of each plate, and 2-fold serial dilutions were performed down the columns. Once the plates were prepared, a day culture of MRSA was diluted to OD600 0.002, and 50 μL was added to each well. The final concentration of MRSA added was OD600 0.001, the final concentration of amoxicillin/clavulanic acid was 4/2 μg/mL, the final concentration of cefazolin was 8 μg/mL, and the highest concentration of 11b tested was 32 μg/mL. Plates were incubated overnight at 37° C. with shaking. The MRC value was determined as the concentration of 11b in the presence of antibiotic at which there was no observable overnight growth.

[4] = tested on: multi-drug resistant MRSA strain, ATCC BAA-44; experiment: Minimum re-sensitizing concentration (MRC) for amoxicillin/clavulanic acid; type: cell-based, S. aureus; details: MRSA ATCC BAA-44; re-sensitizing to amoxicillin/clavulanic acid
Protocol: as §4, §5

[5] = tested on: multi-drug resistant MRSA strain, ATCC BAA-44; experiment: Minimum inhibitory concentration (MIC) of the compound alone; type: cell-based, S. aureus; details: for MIC: Staphylococcus aureus, MRSA ATCC BAA-44, compound alone; for antibacterial activity on its own (in words): MRSA BAA-44
Protocol: as §4, §1

[6] = Half growth inhibitory concentration (GI50), mammalian toxicity; type: cell-based; details: human, HeLa cells (human cervical adenocarcinoma)
Protocol: as §4
To evaluate the cytotoxicity of 11b in mammalian cells, a cell viability assay was carried out using CellTiter-Glo luminescent cell viability assay kit (Promega). Human cervical adenocarcinoma HeLa cells were seeded on white, cell-culture treated 96-well plates (Corning: 3917) with Dulbecco's modified Eagle's medium (DMEM) supplemented with 10% fetal calf serum (FCS), 1% penicillin/streptomycin, at the densities of 20,000 cells/well. The medium volume for each well was 100 μL. Cells were incubated at 37° C. in 5% CO2/95% air for 16 hours. The medium was removed from each well and replaced with 99 μL of warmed fresh medium. To each well was then added 1.0 μL of 11b in DMSO with the final concentrations of 1.56-200 μg/mL. Each concentrate was performed in two replicates. After incubation at 37° C. for another 24 hours, the plates were equilibrated to room temperature for 30 minutes. 100 μL of CellTiter-Glo reagent (Promega) was added to each well and mixed for 2 minutes on an orbital shaker. The plate was incubated at room temperature for another 10 minutes to stabilize luminescent signal. The luminescence of each sample was recorded in an Envision Multilabel Plate Reader (Perkin Elmer).

[7] = tested on: MRSA strains NRS-100 and NRS-384, VRSA strain NR-46414; experiment: MRC of 13 in further MRSA/VRSA strains; type: cell-based, S. aureus; details: community-acquired MRSA NRS-100, NRS-384 and VRSA NR-46414
Protocol: Compound 14 is zwitterionic under physiological conditions and has even lower clogD value. Further evaluations of 13 in a variety of MRSA strains, such as community-acquired MRSA strains NRS-100 and NRS-384, and vancomycin-resistant S. aureus (VRSA) strain NR-46414, also gave a similar results (MRCs=2 μg mL^−1).
as §3, with “row.” for “row. A 1.28 μL portion of 5 mg/mL 11b was added to the top row of each plate to afford a concentration of 64 μg/mL in the top row of each plate, and 2-fold serial dilutions were performed down the columns.”

[8] = Saturated concentration (aqueous solubility); type: physicochemical
Protocol: (§6) The physiochemical properties of various compounds were evaluated. […] In vivo pharmacokinetic (PK) properties of 13 was evaluated.

[9] = In vivo pharmacokinetics and tolerability, single IP dose; details: mouse
Protocol: as §6
(§7) To test this, permeability assessments were performed using MDCK cells.

in vitro = details: dog, MDCK
Protocol: as §7

Row | MIC (MRSA BAA-44) [µg/mL] | MIC (+11b) (MRSA BAA-44) [µg/mL] | MIC [5] [µg/mL] | SMILES | Fold of potentiation (MRSA BAA-44) | MRC Cef [3] [µg/mL] | MRC Amox/clav [4] [µg/mL] | other results
1 | 128 | 4 |  | Cc1nnc(SCC2=C(C(=O)O)N3C(=O)[C@@H](NC(=O)Cn4cnnn4)[C@H]3SC2)s1 [Cefazolin] | 32 |  |  | 
2 |  |  |  | C=C1CCC2C3=Nc4ccccc4C13CCN2C(=O)c1ccc(Cl)cc1 (stereo not drawn) [Compound 11b, 11-[(4-Chlorophenyl)carbonyl]-14-methylidene-8,11-diazatetracyclo[8.3.3.0^1,9.0^2.7]hexadeca-2(7),3,5,8-tetraene] |  |  |  | Fractional Inhibitory Concentration Index (FICI) (MRSA strain ATCC BAA-44): 0.039; MRCs [1]: 0.25 to 2 µg/mL; MICs [2]: 32 to 64 µg/mL
3 |  |  | 8 (≈ 14.7 µM) | C=C1CN(C(=N)N)C[C@@H]2Nc3c(F)cc(Br)cc3[C@]12CCNS(=O)(=O)c1ccc(Cl)cc1 [Guan-ATI 13, (4aS,9aR)-6-bromo-4a-(2-((4-chlorophenyl)sulfonamido)ethyl)-8-fluoro-4-methylene-1,3,4,4a,9,9a-hexahydro-2H-pyrido[3,4-b]indole-2-carboximidamide] |  | 2 | 2 | GI50 at 24 h [6]: 40 µg/mL (≈ 73.7 µM); MRCs [7]: 2 µg/mL; saturated concentration [8]: 587 µg/mL; saturated concentration as fold of MRC in MRSA [8]: ~300 fold; plasma levels as multiple of MRC in MRSA ([9]; in vivo, 30 min): approximately 4 ×MRC; AUC ([9]; plasma, 30 mg/kg): 18200 ng·h/mL; Cmax ([9]; plasma, 30 mg/kg): 8000 ng/mL; half-life ([9]; plasma, 30 mg/kg): 2.5 h; Papp (in vitro): 2.11 ×10⁻⁶ cm/s
4 | 4 | 1 |  | C[C@@H](O)[C@H]1C(=O)N2C(C(=O)O)=C(S[C@@H]3CN[C@H](C(=O)N(C)C)C3)[C@H](C)[C@H]12 [Meropenem] | 4 |  |  | 
5 | 128 | 8 |  | COc1cccc(OC)c1C(=O)N[C@@H]1C(=O)N2[C@@H]1SC(C)(C)[C@@H]2C(=O)O [Methicillin] | 16 |  |  | 
6 |  |  | > 32 | C=C1CN(S(C)(=O)=O)C[C@@H]2Nc3c(F)cc(Br)cc3[C@]12CCNS(=O)(=O)c1ccc(Cl)cc1 [Ms-ATI 11b, N-(2-((4aS,9aR)-6-bromo-8-fluoro-4-methylene-2-(methylsulfonyl)-1,2,3,4,9,9a-hexahydro-4aH-pyrido[3,4-b]indol-4a-yl)ethyl)-4-chlorobenzenesulfonamide] |  | >32 | >32 | 
7 |  |  | 8 (≈ 16 µM) | C=C1CNC[C@@H]2Nc3c(F)cc(Br)cc3[C@]12CCNS(=O)(=O)c1ccc(Cl)cc1 [NH-ATI 12, N-(2-((4aS,9aR)-6-bromo-8-fluoro-4-methylene-1,2,3,4,9,9a-hexahydro-4aH-pyrido[3,4-b]indol-4a-yl)ethyl)-4-chlorobenzenesulfonamide] |  | 4 | 4 | antibacterial activity on its own (in words) [5]: potent antibacterial activity on its own; GI50 at 24 h [6]: 6.7 µg/mL (≈ 13.4 µM)
8 |  |  | > 32 | C=C1CN(S(=O)(=O)c2ccc([N+](=O)[O-])cc2)C[C@@H]2Nc3c(F)cc(Br)cc3[C@]12CCNS(=O)(=O)c1ccc(Cl)cc1 [Ns-ATI 11a, N-(2-((4aS,9aR)-6-bromo-8-fluoro-4-methylene-2-((4-nitrophenyl)sulfonyl)-1,2,3,4,9,9a-hexahydro-4aH-pyrido[3,4-b]indol-4a-yl)ethyl)-4-chlorobenzenesulfonamide] |  | >32 | >32 | 
9 |  |  | > 32 | C=C1CN(C(=O)C(F)(F)F)C[C@@H]2Nc3c(F)cc(Br)cc3[C@]12CCNS(=O)(=O)c1ccc(Cl)cc1 [TFA-ATI 11c, N-(2-((4aS,9aR)-6-bromo-8-fluoro-4-methylene-2-(2,2,2-trifluoroacetyl)-1,2,3,4,9,9a-hexahydro-4aH-pyrido[3,4-b]indol-4a-yl)ethyl)-4-chlorobenzenesulfonamide] |  | 4 | 4 | antibacterial activity on its own (in words) [5]: without observable antibacterial activity; GI50 at 24 h [6]: 19 µg/mL
10 |  |  |  | OC[C@@H](O)[C@@H](O)[C@H](O)[C@H](O)CO [mannitol] |  |  |  | Papp (in vitro): 1.51 ×10⁻⁶ cm/s
11 |  |  |  | COCCc1ccc(OCC(O)CNC(C)C)cc1 (stereo not drawn) [metoprolol] |  |  |  | Papp (in vitro): 53.5 ×10⁻⁶ cm/s

Row | SMILES | MIC (MRSA BAA-44) [µg/mL] | MIC (+11b) (MRSA BAA-44) [µg/mL] | MIC [5] [µg/mL] | Fold of potentiation (MRSA BAA-44) | MRC Cef [3] [µg/mL] | MRC Amox/clav [4] [µg/mL] | other results
12 | C=C1CN(CC(=O)O)C[C@@H]2Nc3c(F)cc(Br)cc3[C@]12CCNS(=O)(=O)c1ccc(Cl)cc1 [Gly-ATI 14, 2-((4aS,9aR)-6-bromo-4a-(2-((4-chlorophenyl)sulfonamido)ethyl)-8-fluoro-4-methylene-1,3,4,4a,9,9a-hexahydro-2H-pyrido[3,4-b]indol-2-yl)acetic acid] |  |  | > 32 |  | >32 | >32 | 
13 | Cc1onc(-c2ccccc2)c1C(=O)N[C@@H]1C(=O)N2[C@@H]1SC(C)(C)[C@@H]2C(=O)O [Oxacillin] | 32 | 1 |  | 32 |  |  | 
